The nature of test [1]: cytotoxicity in HEK-293T cells, dose response, cytotoxicity control for TCR NF-kB inhibitor project, luminescence, T-cell screen hits (AID 489026).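 Also: cells exposed to compound about 14 hours before the viability readout.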 It is filed as functional, cell-based.
The target of test [2] is Protein Wnt-3a (Mus musculus, UniProt P27467). Kind of test: Wnt3a-driven reporter signaling inhibition, dose response, selectivity assay for Gli-SUFU antagonist project, Wnt-LIGHT cells, luminescence (AID 651570).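 Also: Wnt-LIGHT reporter cells stimulated with conditioned medium from Wnt3a-producing cells.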 It is filed as functional. The note with it: read-out: IC50_Mean.
The subject of test [3] is INS1. As to the kind of experiment: beta cell apoptosis inhibitors, cytokine rescue, dose response, luminescence, retest (AID 449756).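 Also: cell death triggered by IL-1 beta plus TNF-alpha plus IFN-gamma mixture; protective hits raise ATP signal compared with cytokine alone wells.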 It is filed as functional, cell-based. The following applies: Rattus norvegicus.
Test [4] is described as follows: Vero E6 cell cytotoxicity, dose response, cytotoxicity control for non-replicating M. tuberculosis project, secondary assay (AID 492998). The test is classed as functional, VeroE6. The following applies: Vero C1008.
Test [5] concerns the target Nonstructural protein 1 (Influenza A virus, UniProt Q194T2). It is filed as functional, Influenza A virus (A/California/07/2009(H1N1)).
Test [6] is described as follows: HepG2 cell cytotoxicity, dose response, cytotoxicity control for non-replicating M. tuberculosis project (AID 489018). The test is classed as functional. The note with it: Mycobacterium tuberculosis.
Test [7] can be described thus: AlphaScreen signal interference compounds, dose response, artefact control for ARNT-TACC3 interaction inhibitor project, biochemical, luminescence, cherry-pick (AID 651705).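 Also: AlphaScreen bead proximity signal that flags compounds interfering with the detection technology; potency reflects signal decrease which marks the compound as an assay artifact.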 The test is classed as functional. In general terms: Alpha assays give light when donor and acceptor beads are brought close together.
Test [8] can be described thus: THP-1 cell cytotoxicity, dose response, cytotoxicity control for non-replicating M. tuberculosis project (AID 489025). It is filed as functional.
The test system of test [9] is H9c2. Kind of test: cells. It is filed as functional, cell-based. The following applies: Rattus norvegicus, H9c2, Myocardium.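 Also: confirmatory concentration-response retest of ultra-high-throughput screening hits for modulation of myocardial damage; cell death induced by hydrogen peroxide oxidative stress; compound pretreatment for 60 min then peroxide exposure for 2 h; potency is for protecting the cells against peroxide damage rather than for killing them.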
Test [10] in a line: cells. The test is classed as functional.
Test [11] deals with Adenosylmethionine-8-amino-7-oxononanoate aminotransferase (Mycobacterium tuberculosis, UniProt P9WQ81). As to the kind of experiment: Mycobacterium tuberculosis BioA enzyme inhibitor Measured in Biochemical System Using Plate Reader - 2163-02_Inhibitor_Dose_CherryPick_Activity. It is filed as functional, Mycobacterium tuberculosis UT205.
Test [12] addresses Melanocortin receptor 4 (Homo sapiens, UniProt P32245). It is filed as functional, cell-based.
The target of test [13] is T1, Polyadenylate-binding protein 1 (Homo sapiens, UniProt P11940). Kind of test: PABP1 MLLE–PAM2 binding inhibitor potency, dose response, biochemical, fluorescence polarization, FITC-PAM2 peptide (AID 602259). The test is classed as functional. The note with it: read-out: IC50_Mean. For orientation: In fluorescence polarisation assays a small probe gives low polarisation when free and higher when bound to something large.

The target in test [14] is T1, Polyadenylate-binding protein 1. Kind of test: PABP1 MLLE–PAM2 interaction inhibitors, dose response, miRNA deadenylation inhibitor project, biochemical, fluorescence polarization, Cy5-PAM2 peptide, secondary (AID 602260). It is filed as functional. The following applies: read-out: IC50_Mean.
A short description of test [15]: control 3'UTR Renilla luciferase suppression, dose response, counter-screen for Shn3 inhibitor project, cell-based, Clone20-Shn3RL, cherry-picked (AID 624133). It is filed as functional.
A short description of test [16]: Shn3 3'UTR reporter inhibitors, dose response, cell-based, Clone20 osteoblasts, firefly luciferase, cherry-picked (AID 624132).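 Also: firefly luciferase luminescence from reporter carrying the Shn3 3'UTR in osteoblasts.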 The test is classed as functional.
Test [17] is described as follows: HepG2 cell cytotoxicity, dose response, cytotoxicity control for Shn3 inhibitor project, CellTiter-Glo, cherry-picked (AID 624134). The test is classed as functional, cell-based. In general terms: Cellular ATP, detected with luciferase, serves as a proxy for viable cell number.
For test [18], the target named is Nuclear receptor subfamily 5 group A member 2 (Homo sapiens, UniProt O00482). It is filed as functional, cell-based.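 Also: HEK293T cells transfected with LRH-1 and a StAR promoter luciferase reporter; potency for inhibitors that lower LRH-1 driven reporter light.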
Test [19] can be described thus: StAR promoter reporter inhibition counter-screen, dose response, counter-screen for LRH-1 inverse agonist project, cell-based, luminescence, luciferase reporter (AID 651969). It is filed as functional.
Test [20] has as its target Steroidogenic factor 1 (Homo sapiens, UniProt Q13285). Kind of test: Counterscreen for inverse agonists of the liver receptor homolog-1 (LRH-1; NR5A2): Luminescence-based cell-based high throughput dose response assay to identify inverse agonists of the Steroidogenic Factor 1 Nuclear Receptor (SF1; NR5A1). The test is classed as functional.
Test [21] concerns the target T2, Aminopeptidase N (Plasmodium falciparum FcB1/Columbia, UniProt O96935).
T2 sequence (O96935 whole entry): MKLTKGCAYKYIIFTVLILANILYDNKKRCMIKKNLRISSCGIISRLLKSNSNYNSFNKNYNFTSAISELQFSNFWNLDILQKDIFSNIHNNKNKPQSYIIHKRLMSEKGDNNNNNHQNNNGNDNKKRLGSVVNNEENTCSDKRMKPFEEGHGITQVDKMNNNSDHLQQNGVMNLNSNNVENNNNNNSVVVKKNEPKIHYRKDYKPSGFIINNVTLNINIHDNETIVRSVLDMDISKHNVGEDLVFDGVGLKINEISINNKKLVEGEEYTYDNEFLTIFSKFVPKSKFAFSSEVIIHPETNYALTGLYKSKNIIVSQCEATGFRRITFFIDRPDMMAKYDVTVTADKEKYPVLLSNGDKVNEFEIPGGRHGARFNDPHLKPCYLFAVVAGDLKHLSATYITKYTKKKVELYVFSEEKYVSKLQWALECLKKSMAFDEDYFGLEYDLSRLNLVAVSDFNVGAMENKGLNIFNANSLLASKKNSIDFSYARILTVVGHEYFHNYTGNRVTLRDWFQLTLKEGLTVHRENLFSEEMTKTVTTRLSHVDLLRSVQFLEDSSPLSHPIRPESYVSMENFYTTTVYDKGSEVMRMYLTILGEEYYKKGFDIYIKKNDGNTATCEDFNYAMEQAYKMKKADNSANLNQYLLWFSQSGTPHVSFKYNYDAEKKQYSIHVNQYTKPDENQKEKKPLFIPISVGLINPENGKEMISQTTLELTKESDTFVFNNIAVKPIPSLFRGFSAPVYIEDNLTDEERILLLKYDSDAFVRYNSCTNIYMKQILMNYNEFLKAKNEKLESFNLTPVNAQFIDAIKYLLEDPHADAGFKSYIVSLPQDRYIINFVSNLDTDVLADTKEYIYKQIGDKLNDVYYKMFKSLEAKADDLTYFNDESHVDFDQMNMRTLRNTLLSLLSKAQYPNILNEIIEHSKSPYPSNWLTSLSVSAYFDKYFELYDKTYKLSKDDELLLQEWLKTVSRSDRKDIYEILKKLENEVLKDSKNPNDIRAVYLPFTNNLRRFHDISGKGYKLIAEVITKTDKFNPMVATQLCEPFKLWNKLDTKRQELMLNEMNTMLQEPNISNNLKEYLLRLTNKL
Kind of test: P. falciparum M1AAP inhibitors, biochemical, fluorogenic H-Leu-NHMec substrate, 1536-well (AID 1445). On the set-up: species or system Plasmodium falciparum 3D7, 3D7.

For test [22], the target named is T3, High affinity choline transporter 1 (Homo sapiens, UniProt Q9GZV3).
T3 sequence (Q9GZV3 whole entry): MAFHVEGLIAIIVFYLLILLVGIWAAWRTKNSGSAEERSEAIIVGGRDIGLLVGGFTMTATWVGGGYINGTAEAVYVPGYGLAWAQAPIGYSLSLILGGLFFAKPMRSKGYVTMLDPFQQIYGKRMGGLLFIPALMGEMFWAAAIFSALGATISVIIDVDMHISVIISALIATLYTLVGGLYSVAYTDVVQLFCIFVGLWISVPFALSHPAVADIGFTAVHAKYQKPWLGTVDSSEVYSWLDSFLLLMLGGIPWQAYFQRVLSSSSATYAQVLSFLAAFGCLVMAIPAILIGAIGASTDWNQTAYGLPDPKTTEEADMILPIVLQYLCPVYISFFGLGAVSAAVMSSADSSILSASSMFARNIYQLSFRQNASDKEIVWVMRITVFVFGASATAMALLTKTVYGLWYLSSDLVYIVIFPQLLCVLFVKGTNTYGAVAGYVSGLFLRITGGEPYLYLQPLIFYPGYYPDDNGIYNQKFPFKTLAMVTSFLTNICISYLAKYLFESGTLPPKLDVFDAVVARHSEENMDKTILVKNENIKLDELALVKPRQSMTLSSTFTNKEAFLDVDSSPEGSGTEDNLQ
As to the kind of experiment: CHT inhibitors, dose response, cell-based, 10-point CRC, membrane potential dye (AID 588401).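 Also: membrane potential dye fluorescence of choline-evoked depolarization via CHT.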 The test is classed as functional.

A short description of test [23]: C. albicans growth with fluconazole, confirmation, fluorescence, retest (AID 2467). The test is classed as functional, cell-based.
The target in test [24] is Dual specificity tyrosine-phosphorylation-regulated kinase 1A (Rattus norvegicus, UniProt Q63470). It is filed as biochemical, Homo sapiens.
The nature of test [25]: NIH-3T3 fibroblast cytotoxicity, dose response, cytotoxicity control, cell-based, fluorescence, Alamar Blue, secondary assay (AID 2327).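 Also: NIH-3T3 mouse fibroblasts cultured with fluconazole at 8 µg/mL.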 It is filed as functional.
Test [26] concerns the target T3, High affinity choline transporter 1. Kind of test: CHT inhibitors, dose response, cell-based, 5-point CRC, membrane potential dye (AID 504840). The test is classed as functional.
For test [27], the target named is T4, Short transient receptor potential channel 4 (Mus musculus, UniProt Q9QUQ5).
T4 sequence (Q9QUQ5 whole entry): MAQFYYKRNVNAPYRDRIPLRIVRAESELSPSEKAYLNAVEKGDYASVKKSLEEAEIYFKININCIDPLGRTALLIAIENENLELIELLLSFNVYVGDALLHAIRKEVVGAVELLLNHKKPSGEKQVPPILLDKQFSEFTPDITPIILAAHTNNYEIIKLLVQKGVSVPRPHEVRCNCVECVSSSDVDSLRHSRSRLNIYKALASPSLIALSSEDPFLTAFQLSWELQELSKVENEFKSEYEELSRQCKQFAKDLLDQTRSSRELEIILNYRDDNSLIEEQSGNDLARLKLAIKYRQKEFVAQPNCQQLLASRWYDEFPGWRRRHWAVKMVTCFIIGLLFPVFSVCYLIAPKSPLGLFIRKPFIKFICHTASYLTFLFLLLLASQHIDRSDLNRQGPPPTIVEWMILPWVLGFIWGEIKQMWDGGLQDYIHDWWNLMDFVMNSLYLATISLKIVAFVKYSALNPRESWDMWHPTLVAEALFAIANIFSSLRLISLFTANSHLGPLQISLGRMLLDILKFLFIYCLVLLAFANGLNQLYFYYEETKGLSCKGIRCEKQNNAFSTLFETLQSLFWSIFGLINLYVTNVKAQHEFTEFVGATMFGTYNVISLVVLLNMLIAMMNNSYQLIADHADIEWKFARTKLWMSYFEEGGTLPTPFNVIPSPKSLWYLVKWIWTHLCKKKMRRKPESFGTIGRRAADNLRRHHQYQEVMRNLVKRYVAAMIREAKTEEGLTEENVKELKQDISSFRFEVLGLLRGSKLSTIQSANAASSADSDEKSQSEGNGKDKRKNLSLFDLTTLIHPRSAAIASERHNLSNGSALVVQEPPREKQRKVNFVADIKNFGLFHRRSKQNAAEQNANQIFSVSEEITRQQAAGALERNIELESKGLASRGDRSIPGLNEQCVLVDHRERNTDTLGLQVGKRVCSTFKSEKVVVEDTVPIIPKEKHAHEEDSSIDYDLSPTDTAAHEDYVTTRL
Kind of test: mouse TRPC4 channel inhibitors, dose response, cell-based, HEK293 TRPC4/mu-opioid, Fluo-4 calcium (AID 434942).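 Also: potency of inhibitors blocking the TRPC4 calcium response.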 It is filed as functional.

Active and inactive are the calls of the source. A value given as a limit tells only on which side of the number the result lay.

The AC50 is the midpoint of the concentration-response curve, whichever way the signal moves. As a reminder, the CC50 is the concentration giving 50% cytotoxicity. By EC50 is commonly meant the concentration needed to bring the measured effect to its halfway point.

Sequence of Melanocortin receptor 4 (P32245 whole entry): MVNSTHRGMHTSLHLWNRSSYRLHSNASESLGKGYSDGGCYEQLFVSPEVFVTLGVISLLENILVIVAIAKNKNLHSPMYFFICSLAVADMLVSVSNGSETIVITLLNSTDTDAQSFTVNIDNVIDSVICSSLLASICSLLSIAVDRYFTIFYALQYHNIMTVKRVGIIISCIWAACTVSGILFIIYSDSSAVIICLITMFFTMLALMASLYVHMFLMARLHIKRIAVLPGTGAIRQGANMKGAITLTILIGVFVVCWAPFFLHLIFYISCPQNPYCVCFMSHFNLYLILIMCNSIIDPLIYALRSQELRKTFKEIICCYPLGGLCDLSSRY
Sequence of Protein Wnt-3a (P27467 whole entry): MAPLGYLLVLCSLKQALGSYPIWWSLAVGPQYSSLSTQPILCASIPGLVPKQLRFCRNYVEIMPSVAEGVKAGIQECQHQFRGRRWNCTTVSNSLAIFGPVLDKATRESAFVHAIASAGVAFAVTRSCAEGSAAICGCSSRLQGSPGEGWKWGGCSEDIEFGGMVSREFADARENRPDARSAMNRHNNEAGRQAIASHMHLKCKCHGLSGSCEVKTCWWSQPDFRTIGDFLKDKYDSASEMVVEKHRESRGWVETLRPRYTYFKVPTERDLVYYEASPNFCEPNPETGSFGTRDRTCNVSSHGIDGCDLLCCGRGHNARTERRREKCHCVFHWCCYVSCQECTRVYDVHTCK
T1 sequence (P11940 whole entry): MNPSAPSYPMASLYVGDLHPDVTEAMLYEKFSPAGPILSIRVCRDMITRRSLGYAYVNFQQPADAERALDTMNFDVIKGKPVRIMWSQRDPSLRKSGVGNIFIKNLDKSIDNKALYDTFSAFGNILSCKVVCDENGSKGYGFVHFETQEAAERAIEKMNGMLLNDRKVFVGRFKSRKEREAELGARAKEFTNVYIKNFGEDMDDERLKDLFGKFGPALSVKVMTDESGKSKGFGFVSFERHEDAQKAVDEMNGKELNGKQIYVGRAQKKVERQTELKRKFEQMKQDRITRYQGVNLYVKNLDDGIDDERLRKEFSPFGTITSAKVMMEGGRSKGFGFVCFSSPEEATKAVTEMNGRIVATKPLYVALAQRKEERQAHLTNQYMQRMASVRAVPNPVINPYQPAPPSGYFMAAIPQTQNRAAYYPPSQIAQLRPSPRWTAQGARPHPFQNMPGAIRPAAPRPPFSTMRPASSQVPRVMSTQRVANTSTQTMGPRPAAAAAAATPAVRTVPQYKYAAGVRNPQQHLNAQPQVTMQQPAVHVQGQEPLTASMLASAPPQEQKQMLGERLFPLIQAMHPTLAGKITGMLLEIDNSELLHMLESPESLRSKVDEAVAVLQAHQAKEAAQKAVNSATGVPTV
Sequence of Adenosylmethionine-8-amino-7-oxononanoate aminotransferase (P9WQ81 whole entry): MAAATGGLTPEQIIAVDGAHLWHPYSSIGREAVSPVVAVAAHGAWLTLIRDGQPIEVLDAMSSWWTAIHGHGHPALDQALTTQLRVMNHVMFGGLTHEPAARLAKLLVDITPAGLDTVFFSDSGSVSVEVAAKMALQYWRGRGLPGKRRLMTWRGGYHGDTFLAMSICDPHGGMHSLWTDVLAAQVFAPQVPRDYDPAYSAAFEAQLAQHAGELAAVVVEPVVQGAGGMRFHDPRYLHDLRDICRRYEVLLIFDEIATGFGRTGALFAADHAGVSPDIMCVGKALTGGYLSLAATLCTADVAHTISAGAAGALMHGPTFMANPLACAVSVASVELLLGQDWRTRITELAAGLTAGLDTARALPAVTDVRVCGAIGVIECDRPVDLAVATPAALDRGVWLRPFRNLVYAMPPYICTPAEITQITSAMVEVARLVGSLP
Sequence of Nonstructural protein 1 (Q194T2 whole entry): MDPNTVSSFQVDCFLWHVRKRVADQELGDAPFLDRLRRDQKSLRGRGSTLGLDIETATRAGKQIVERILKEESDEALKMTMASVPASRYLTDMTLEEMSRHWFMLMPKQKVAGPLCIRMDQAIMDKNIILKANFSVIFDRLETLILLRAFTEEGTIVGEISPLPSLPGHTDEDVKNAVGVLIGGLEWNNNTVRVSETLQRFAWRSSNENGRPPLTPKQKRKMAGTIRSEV
Sequence of Nuclear receptor subfamily 5 group A member 2 (O00482 whole entry): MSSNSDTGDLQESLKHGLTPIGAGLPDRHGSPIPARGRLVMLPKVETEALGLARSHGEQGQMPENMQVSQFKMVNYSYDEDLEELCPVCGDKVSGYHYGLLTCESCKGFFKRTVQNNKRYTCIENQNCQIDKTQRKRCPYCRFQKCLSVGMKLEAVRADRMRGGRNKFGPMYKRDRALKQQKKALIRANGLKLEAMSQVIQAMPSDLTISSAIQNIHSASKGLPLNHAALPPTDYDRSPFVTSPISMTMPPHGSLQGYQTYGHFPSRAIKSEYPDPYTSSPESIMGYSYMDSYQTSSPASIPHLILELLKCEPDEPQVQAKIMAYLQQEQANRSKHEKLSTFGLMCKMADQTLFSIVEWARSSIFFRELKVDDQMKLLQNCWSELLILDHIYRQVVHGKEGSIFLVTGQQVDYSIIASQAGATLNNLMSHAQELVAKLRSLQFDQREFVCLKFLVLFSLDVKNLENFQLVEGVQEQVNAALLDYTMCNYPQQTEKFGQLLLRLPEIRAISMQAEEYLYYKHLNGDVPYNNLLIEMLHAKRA
Sequence of Steroidogenic factor 1 (Q13285 whole entry): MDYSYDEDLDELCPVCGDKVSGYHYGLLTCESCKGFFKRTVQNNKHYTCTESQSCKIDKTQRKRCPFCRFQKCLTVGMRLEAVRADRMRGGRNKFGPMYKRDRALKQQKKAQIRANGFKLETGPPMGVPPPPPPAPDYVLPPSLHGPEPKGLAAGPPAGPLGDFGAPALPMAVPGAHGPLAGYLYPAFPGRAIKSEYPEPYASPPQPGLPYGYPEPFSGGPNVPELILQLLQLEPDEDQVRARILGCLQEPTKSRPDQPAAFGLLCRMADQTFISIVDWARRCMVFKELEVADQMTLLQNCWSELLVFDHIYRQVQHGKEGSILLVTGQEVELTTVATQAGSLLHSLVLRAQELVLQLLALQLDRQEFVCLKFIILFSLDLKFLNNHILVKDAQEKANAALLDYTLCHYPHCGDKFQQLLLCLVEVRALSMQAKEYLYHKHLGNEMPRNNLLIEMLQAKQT

Turning to `CC(=O)c1c(C)[nH]c(C(=O)OCC(=O)Nc2ccc(C)cc2[N+](=O)[O-])c1C`, the results for the IC50 in test [1] and in [2] were > 80 µM (inactive) and 0.245 µM (active), respectively. In addition, the AC50 in test [3] was 1.12 µM (active).

As to `O=C(CCS(=O)(=O)c1ccccc1)Nc1nc(-c2ccccn2)cs1`, the CC50 was 10.6 µM (active) in test [4], > 20 µM (active) in test [6] and 22.5 µM (active) in test [8]. Besides, the values for the IC50 in test [5], in test [9] and in [10] were 15.7 µM (active), 35.8 µM (inactive) and 4.53 µM (active), respectively. Further, the AC50 in test [7] is 118 µM (active).

Take `O=C1CCCc2c1cc(C(=O)NCc1ccco1)c(=O)n2-c1ccc(Cl)cc1`: in [11], the AC50 is 3.08 µM (active).

Consider `COc1ccc(-c2cc(NC=O)c3ncc(-c4ccccc4)n3c2)cc1OC`, for which the EC50 in test [12] was > 89.2 µM (inactive). Also, the IC50 in test [9] was > 79 µM (inactive).

As for `CC(=O)Nc1cc(-c2ccccc2N(C)C)cn2c(-c3ccc(F)c(Cl)c3)cnc12`, the IC50 in test [13] and in test [14] was > 66 µM (inactive) each time. Also, in test [12], the EC50 was > 89.2 µM (inactive).

Regarding `CC(Sc1nc2ccccc2c(=O)n1C)C(=O)NC1CCCCC1C` (centres undefined), the AC50 in test [15] was 3.78 µM (active); in test [16], 3.46 µM (active); in test [17], 26.2 µM (active). Also, in test [2], the IC50 was 4.15 µM (active).

Turning to `NC(=NOC(=O)Cc1ccc([N+](=O)[O-])cc1)c1ccccn1`, in test [5], the IC50 was 32.1 µM (active). For the same compound, the concentration at half-maximal activity (AC50) in test [7] is 78.8 µM (active).

Turning to `COc1cc(C(=O)Nc2ccccc2C2COC(=O)C2=N)cc(OC)c1OC` (centres undefined), the IC50 in test [18] is 8.25 µM (active); in [19], 35.9 µM (inactive); in test [20] it was 4.53 µM (active).

As for `N#C/C(=N\Nc1cccc([N+](=O)[O-])c1)C(=O)c1ccc(Br)cc1`, the IC50 in test [21] was 40.5 µM (active); in test [22], 3.36 µM (active); in [26], 9.02 µM (active). Further, the EC50 in test [23] was 4.48 µM (active); in [25] it was 56.9 µM (active); in test [27], 3.35 µM (active). The AC50 in test [24] was 2.91 µM (active); in test [3] it was 6.82 µM (active).

With `Cc1ccc(-n2ncc3c2CC(C)(C)CC3NC(=O)CCc2cccnc2)cc1` (centres undefined), the AC50 in test [11] was 9.11 µM (active).

Values taken from ChEMBL document CHEMBL1201862, “PubChem BioAssay data set” (2004).
